Data from patent publication US20050182025A1, “Amidinylphenyl compounds and their use as fungicides” (priority 2002, published 2005).

Columns and labels:
Format in all cases: in vivo
[1] = system: Erysiphe graminis f. sp. tritici; assay: Test A: preventive spray on wheat seedlings, wheat powdery mildew, disease rating; settings: wheat seedlings sprayed to run-off, inoculated the following day with Erysiphe graminis f. sp. tritici, rated after 7 days at 20° C.; test concentration not given
Source text: General protocol for preparing test suspensions: Test compounds were first dissolved in acetone in an amount equal to 3% of the final volume and then suspended at the desired concentration (in ppm) in acetone and purified water (50/50 mix) containing 250 ppm of the surfactant Trem® 014 (polyhydric alcohol esters). The resulting test suspensions were then used in the following tests. Spraying a 200 ppm test suspension to the point of run-off on the test plants was the equivalent of a rate of 500 g/ha. The test suspension was sprayed to the point of run-off on wheat seedlings. The following day the seedlings were inoculated with a spore dust of Erysiphe graminis f. sp. tritici, (the causal agent of wheat powdery mildew) and incubated in a growth chamber at 20° C. for 7 days, after which disease ratings were made. Results for Tests A-C are given in Table A. In the table, a rating of 100 indicates 100% disease control and a rating of 0 indicates no disease control (relative to the controls). A dash (-) indicates no test results.

Septoria nodorum = assay: Test C: preventive spray on wheat seedlings, Septoria glume blotch, disease rating; settings: wheat seedlings sprayed to run-off, inoculated the following day with Septoria nodorum, 48 h saturated atmosphere then 9 days at 20° C.; test concentration not given
Source text: (§1) General protocol for preparing test suspensions: Test compounds were first dissolved in acetone in an amount equal to 3% of the final volume and then suspended at the desired concentration (in ppm) in acetone and purified water (50/50 mix) containing 250 ppm of the surfactant Trem® 014 (polyhydric alcohol esters). The resulting test suspensions were then used in the following tests. Spraying a 200 ppm test suspension to the point of run-off on the test plants was the equivalent of a rate of 500 g/ha. The test suspension was sprayed to the point of run-off on wheat seedlings. The following day the seedlings were inoculated with a spore suspension of Septoria nodorum (the causal agent of Septoria glume blotch) and incubated in a saturated atmosphere at 20° C. for 48 h, and then moved to a growth chamber at 20° C. for 9 days, after which disease ratings were made. Results for Tests A-C are given in Table A. In the table, a rating of 100 indicates 100% disease control and a rating of 0 indicates no disease control (relative to the controls). A dash (-) indicates no test results.

Puccinia recondita = assay: Test B: preventive spray on wheat seedlings, wheat leaf rust, disease rating; settings: wheat seedlings sprayed to run-off, inoculated the following day with Puccinia recondita, 24 h saturated atmosphere then 6 days at 20° C.; test concentration not given
Source text: as §1, with “Puccinia recondita” for “Septoria nodorum”, “wheat leaf rust)” for “Septoria glume blotch)”, “24” for “48”, “6” for “9”

Row | Compound | Test A disease control rating (100 = 100% disease control, 0 = no disease control relative to the controls) [1] [%] | Test C disease control rating (100 = 100% disease control, 0 = no disease control relative to the controls) (Septoria nodorum) [%] | Test B disease control rating (100 = 100% disease control, 0 = no disease control relative to the controls) (Puccinia recondita) [%]
1 | CC(C)=CCOc1cc(C)c(N=CN(C)C)cc1C [Compound 1, N′-[2,5-Dimethyl-4-[(3-methyl-2-butenyl)-oxy]phenyl]-N,N-dimethylmethanimidamide] | 32 | 92 | 100
2 | CC(C)=CCCC(C)=CCOc1cc(C)c(N=CN(C)C)cc1C [Compound 2] | 95 | 36 | 100
3 | CC(C)=CCCC(C)=CCCC(C)=CCOc1cc(C)c(N=CN(C)C)cc1C [Compound 3] | 0 | 0 | 87
4 | Cc1cc(OCC(=O)C(C)(C)C)c(C)cc1N=CN(C)C [Compound 4] | 0 | 0 | 92
5 | C=CCCCCOc1cc(C)c(N=CN(C)C)cc1C [Compound 5] | 0 | 89 | 100
6 | C=CCCCOc1cc(C)c(N=CN(C)C)cc1C [Compound 6] | 0 | 60 | 100
7 | COC(CCCCOc1cc(C)c(N=CN(C)C)cc1C)(OC)OC [Compound 7] | 0 | 0 | 0
8 | Cc1cc(OCCC(C)C)c(C)cc1N=CN(C)C [Compound 8] | 97 | 98 | 100
9 | C=C(CCCOc1cc(C)c(N=CN(C)C)cc1C)C(C)C [Compound 9] | 98 | 97 | 100
10 | Cc1cc(OCCC(C)CCCC(C)C)c(C)cc1N=CN(C)C (stereo not drawn) [Compound 10] | 97 | 0 | 100
11 | Cc1cc(OCCC(C)CC(C)(C)C)c(C)cc1N=CN(C)C (stereo not drawn) [Compound 11] | 97 | 100 | 100
12 | Cc1cc(OCCC(C)(C)C)c(C)cc1N=CN(C)C [Compound 12] | 97 | 80 | 100
